Test results reported in PubChem BioAssay AID1963964 (Molecular Pharmacology Branch, DTP, NCI, 2024).
Each block holds one compound with its values, some of them ahead of it.

System: 997726-040-R-J2-PDC tumor spheroids, viability
Test: Anticancer human tumor 997726-040-R-J2-PDC patient-derived squamous cell lung carcinoma cell line growth inhibition [PI3K]
Conditions: spheroids with HUVEC and MSC; for IC50: curve of first compound; for viability, T/C: stronger effect = lower value
Description: Combinatorial screen of targeted agents with the PI3K inhibitors inavolisib, alpelisib, duvelisib, and copanlisib in multi-cell type tumor spheroids
A high-throughput screen of multi-cell type tumor spheroids was designed to identify active combinations of targeted small molecules and PI3K pathway inhibitors. Complex spheroids include a stromal component modeled by human endothelial cells (HUVEC) and fibroblasts modeled by human mesenchymal stem cells (MSCs). The concentration ranges selected for each drug and investigational agent were based upon clinically achievable concentrations if the clinical Cmax of the agent was known.
Compounds. The drugs and investigational agents: inavolisib (NSC800729), alpelisib (NSC765974), duvelisib (NSC772469), copanlisib (NSC816437), ipatasertib (NSC767898), afuresertib (NSC778305), talazoparib (NSC767125), sapanisertib (NSC764658), selumetinib (NSC741078), tovorafenib (DAY101, NSC766906), vemurafenib (NSC761431), ravoxertinib (NSC781343), sotorasib (NSC818433), MRTX1133 (NSC 836407), abemaciclib (NSC 768073), palbociclib (NSC758247), venetoclax (NSC 766270), SY5609 (NSC837396), enzalutamide (NSC755605), and darolutamide (NSC825331), were obtained from the National Cancer Institute (NCI) Developmental Therapeutics Program Chemical Repository. The FDA-approved anticancer drug set is available from the NCI Developmental Therapeutics Program. […] The stock solutions were prepared in dimethyl sulfoxide (DMSO, Sigma-Aldrich, St. Louis, MO, cat. D2650) at 800-fold the tested concentration and stored at -70 degrees C prior to their use. All drugs and investigational agents were tested over a range starting from a high concentration at or near the clinical Cmax and decreasing in half-log increments. If the clinical Cmax for an agent had not been determined, the highest concentration tested was 10 microM.
Cell Culture. All cells were maintained in an incubator at 37 degrees C and 5% CO2 with 95% humidity. The PDC lines were cultured according to standard operating procedures established by the NCI PDMR (https://pdmr.cancer.gov/sops/default.htm). All PDCs were thawed and cultured in Matrigel-coated flasks prepared with a working solution of 1X Ham's F-12 nutrient mix, without supplementation (Invitrogen, Waltham, MA, cat. 11765054), 100 U/mL penicillin-streptomycin (Invitrogen, cat. 15140122), and 2.5% Matrigel (Corning Inc., Corning, NY, cat. 354248) for the first three passages. The 354836-022-R-J1-PDC, 475296-252-R-J1-PDC, and 997726-040-R-J2-PDC lines were cultured in 6A media, which includes advanced DMEM/F-12 (Thermo Fisher Scientific, cat. 12634028), 10 mM HEPES (Thermo Fisher Scientific, cat. 15630080), 1X GlutaMAX supplement (Thermo Fisher Scientific, cat. 35050061), 0.1 mg/mL primocin (InvivoGen, San Diego, CA, cat. ant-pm-2), 10% defined fetal bovine serum, heat inactivated (HyClone Laboratories Inc., Logan, UT, cat. SH30070.03HI), 50% L-WRN conditioned media (ATCC, cat. CRL-3276), 1.25 mM N-Acetyl-L-cysteine (Sigma-Aldrich, cat. A9165), 10 mM nicotinamide (Sigma-Aldrich, cat. N0636), 1X B-27 supplement (Thermo Fisher Scientific, cat. 17504044), 1X N-2 supplement (Thermo Fisher Scientific, cat. 17502048), and 10 microM Y-27632 dihydrochloride (Tocris Bioscience, Bristol, United Kingdom, cat. 1254). The 624824-186-R-J2-PDC line was cultured in 6C/Colon 1B media, which includes all 6A media components plus 50 ng/mL human EGF recombinant protein (Thermo Fisher Scientific, cat. PHG0311). […]

[1] = second compound 0.00316 µM, first compound 0.0316 µM
[2] = second compound 0.00316 µM, first compound 0.1 µM
[3] = second compound 0.01 µM, first compound 0.0316 µM
[4] = second compound 0.01 µM, first compound 0.1 µM
[5] = second compound 0.0316 µM, first compound 0.0316 µM
[6] = second compound 0.0316 µM, first compound 0.1 µM
[7] = second compound 0.1 µM, first compound 0.0316 µM
[8] = second compound 0.1 µM, first compound 0.1 µM
[9] = second compound 0.316 µM, first compound 0.0316 µM
[10] = second compound 0.316 µM, first compound 0.1 µM
[11] = second compound 1 µM, first compound 0.0316 µM
[12] = second compound 1 µM, first compound 0.1 µM
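Further: spheroids exposed to compounds for seven days before readout.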

- IC50 (second compound 0.00316 µM): 17.4 nM
- IC50 (second compound 0.01 µM): 16.5 nM
- IC50 (second compound 0.0316 µM): 3.27 nM
- IC50 (second compound 0.1 µM): < 0.316 nM
- IC50 (second compound 0.316 µM): < 0.316 nM
- IC50 (second compound 1 µM): < 0.316 nM
Compound: CC(C)n1nc(-c2ccc3oc(N)nc3c2)c2c(N)ncnc21 + CC(Nc1ccc2c(c1)OCCn1cc(N3C(=O)OCC3C(F)F)nc1-2)C(N)=O
- viability, T/C (second compound 0.00316 µM, first compound 0.000316 µM): 79%
- viability, T/C (second compound 0.00316 µM, first compound 0.001 µM): 88.2%
- viability, T/C (second compound 0.00316 µM, first compound 0.00316 µM): 73.5%
- viability, T/C (second compound 0.00316 µM, first compound 0.01 µM): 59.8%
- viability, T/C [1]: 38.9%
- viability, T/C [2]: 7.14%
- viability, T/C (second compound 0.01 µM, first compound 0.000316 µM): 74.8%
- viability, T/C (second compound 0.01 µM, first compound 0.001 µM): 68.5%
- viability, T/C (second compound 0.01 µM, first compound 0.00316 µM): 71.3%
- viability, T/C (second compound 0.01 µM, first compound 0.01 µM): 59.1%
- viability, T/C [3]: 37.4%
- viability, T/C [4]: 6.85%
- viability, T/C (second compound 0.0316 µM, first compound 0.000316 µM): 54.6%
- viability, T/C (second compound 0.0316 µM, first compound 0.001 µM): 61.3%
- viability, T/C (second compound 0.0316 µM, first compound 0.00316 µM): 48.7%
- viability, T/C (second compound 0.0316 µM, first compound 0.01 µM): 38.6%
- viability, T/C [5]: 26.6%
- viability, T/C [6]: 6.47%
- viability, T/C (second compound 0.1 µM, first compound 0.000316 µM): 44.2%
- viability, T/C (second compound 0.1 µM, first compound 0.001 µM): 39.5%
- viability, T/C (second compound 0.1 µM, first compound 0.00316 µM): 42.5%
- viability, T/C (second compound 0.1 µM, first compound 0.01 µM): 33%
- viability, T/C [7]: 20.9%
- viability, T/C [8]: 4.52%
- viability, T/C (second compound 0.316 µM, first compound 0.000316 µM): 32.5%
- viability, T/C (second compound 0.316 µM, first compound 0.001 µM): 33.9%
- viability, T/C (second compound 0.316 µM, first compound 0.00316 µM): 27.9%
- viability, T/C (second compound 0.316 µM, first compound 0.01 µM): 24.9%
- viability, T/C [9]: 13.5%
- viability, T/C [10]: 3.29%
- viability, T/C (second compound 1 µM, first compound 0.000316 µM): 29.1%
- viability, T/C (second compound 1 µM, first compound 0.001 µM): 26.9%
- viability, T/C (second compound 1 µM, first compound 0.00316 µM): 21.4%
- viability, T/C (second compound 1 µM, first compound 0.01 µM): 20.6%
- viability, T/C [11]: 9.52%
- viability, T/C [12]: 2.78%

- IC50 (second compound 0.00316 µM): 6540 nM
- IC50 (second compound 0.01 µM): 6210 nM
- IC50 (second compound 0.0316 µM): 4990 nM
- IC50 (second compound 0.1 µM): 3460 nM
- IC50 (second compound 0.316 µM): < 31.6 nM
- IC50 (second compound 1 µM): < 31.6 nM
Compound: CCCS(=O)(=O)Nc1ccc(F)c(C(=O)c2c[nH]c3ncc(-c4ccc(Cl)cc4)cc23)c1F + CC(Nc1ccc2c(c1)OCCn1cc(N3C(=O)OCC3C(F)F)nc1-2)C(N)=O
- viability, T/C [1]: 83.8%
- viability, T/C [2]: 101%
- viability, T/C (second compound 0.00316 µM, first compound 0.316 µM): 98.2%
- viability, T/C (second compound 0.00316 µM, first compound 1 µM): 108%
- viability, T/C (second compound 0.00316 µM, first compound 3.16 µM): 107%
- viability, T/C (second compound 0.00316 µM, first compound 10 µM): 20.9%
- viability, T/C [3]: 76.5%
- viability, T/C [4]: 94.7%
- viability, T/C (second compound 0.01 µM, first compound 0.316 µM): 90.7%
- viability, T/C (second compound 0.01 µM, first compound 1 µM): 90.3%
- viability, T/C (second compound 0.01 µM, first compound 3.16 µM): 97.1%
- viability, T/C (second compound 0.01 µM, first compound 10 µM): 21.8%
- viability, T/C [5]: 65.1%
- viability, T/C [6]: 64.1%
- viability, T/C (second compound 0.0316 µM, first compound 0.316 µM): 72.4%
- viability, T/C (second compound 0.0316 µM, first compound 1 µM): 72%
- viability, T/C (second compound 0.0316 µM, first compound 3.16 µM): 70.3%
- viability, T/C (second compound 0.0316 µM, first compound 10 µM): 21.8%
- viability, T/C [7]: 54.6%
- viability, T/C [8]: 53.1%
- viability, T/C (second compound 0.1 µM, first compound 0.316 µM): 49.4%
- viability, T/C (second compound 0.1 µM, first compound 1 µM): 51.9%
- viability, T/C (second compound 0.1 µM, first compound 3.16 µM): 52.9%
- viability, T/C (second compound 0.1 µM, first compound 10 µM): 22.6%
- viability, T/C [9]: 35.6%
- viability, T/C [10]: 36.8%
- viability, T/C (second compound 0.316 µM, first compound 0.316 µM): 40.1%
- viability, T/C (second compound 0.316 µM, first compound 1 µM): 43.6%
- viability, T/C (second compound 0.316 µM, first compound 3.16 µM): 39.8%
- viability, T/C (second compound 0.316 µM, first compound 10 µM): 17.3%
- viability, T/C [11]: 35.6%
- viability, T/C [12]: 28.7%
- viability, T/C (second compound 1 µM, first compound 0.316 µM): 29.8%
- viability, T/C (second compound 1 µM, first compound 1 µM): 32.5%
- viability, T/C (second compound 1 µM, first compound 3.16 µM): 30.9%
- viability, T/C (second compound 1 µM, first compound 10 µM): 16.1%
